Measurements published in PubChem BioAssay (NCI).
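Cultured in 96-well plates, cells were exposed to test compound for 48 hours across five concentrations. The concentration for 50% growth inhibition is given as GI50. TGI marks complete inhibition of growth.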

Columns and labels:
Experiment in all cases: NCI-60 cell line screen, 48 h
[1] = system: UACC-257 melanoma
[2] = system: OVCAR-4 ovarian
[3] = system: SK-MEL-2 melanoma
[4] = system: TK-10 renal
[5] = system: SK-OV-3 ovarian
[6] = system: U251 CNS
[7] = system: HOP-62 NSCLC
[8] = system: HOP-92 NSCLC
[9] = system: SNB-75 CNS
[10] = system: OVCAR-8 ovarian
[11] = system: OVCAR-3 ovarian
[12] = system: NCI-H522 lung
[13] = system: NCI/ADR-RES ovarian
[14] = system: T-47D breast

SMILES | TGI [1] [µM] | TGI [2] [µM] | TGI [3] [µM] | TGI [4] [µM] | TGI [5] [µM] | TGI [6] [µM] | TGI [7] [µM] | TGI [8] [µM] | TGI [9] [µM] | TGI [10] [µM] | TGI [11] [µM] | TGI [12] [µM] | TGI [13] [µM] | TGI [14] [µM] | GI50 [2] [µM] | GI50 [5] [µM] | GI50 [8] [µM] | GI50 [9] [µM] | GI50 [10] [µM] | GI50 [11] [µM]
CC(=O)OCC1OC(OCCCCCCO)C(OC(C)=O)C(OC(C)=O)C1OC(C)=O (stereo not given) | > 100 | > 100 | > 100 | > 100 | > 100 | > 100 | > 100 | > 100 | > 100 | > 100 | > 100 | > 100 | > 100 | – | – | – | – | – | – | –
CC1(C)C(=O)c2ccccc2OC1N1CCN(C2Oc3ccccc3C(=O)C2(C)C)CC1 (stereo not given) | – | > 100 | – | > 100 | > 100 | > 100 | > 100 | > 100 | > 100 | – | > 100 | > 100 | > 100 | > 100 | – | – | – | – | – | –
Cc1cn(C2CC(N)C(C(=O)NCC(=O)O)O2)c(=O)[nH]c1=O (stereo not given) | – | > 100 | – | > 100 | > 100 | > 100 | > 100 | > 100 | > 100 | – | > 100 | > 100 | > 100 | > 100 | – | – | – | – | – | –
COc1ccc(-c2ccc(-c3ccc(C(=N)N)nc3)s2)cc1Cl | – | 3.25 | – | – | 3.36 | – | – | 3.41 | 2.8 | 7.13 | 3.24 | – | – | – | 1.74 | 1.75 | 1.63 | 1.43 | 2.6 | 1.83
C=CCN1C(=O)/C(=C/c2ccco2)N=C1SC1OC(COC(C)=O)C(OC(C)=O)C(OC(C)=O)C1OC(C)=O (stereo not given) | > 100 | > 100 | > 100 | > 100 | > 100 | > 100 | > 100 | > 100 | > 100 | > 100 | > 100 | 51.7 | > 100 | – | – | – | – | – | – | –
